A short description of assay [1]: Inhibition of Baker's yeast alpha-glucosidase pre-incubated for 10 mins before para-nitrophenyl-alpha-D-glucopyranoside substrate addition. Details: species or system Saccharomyces cerevisiae.
Assay [2] deals with Sucrase-isomaltase, intestinal (Rattus norvegicus, UniProt P23739). In words: Inhibition of rat intestinal sucrase using sucrose substrate incubated for 10 mins.
A short description of assay [3]: Inhibition of rat intestinal maltase using maltose substrate incubated for 10 mins.
The nature of assay [4]: Inhibition of alpha-glucosidase (unknown origin). Further details: species or system Homo sapiens.

Molecules are shown by their SMILES.

The term IC50 denotes the concentration needed to halve the response being measured.

Chain of Sucrase-isomaltase, intestinal (P23739 1-1013 limits assumed): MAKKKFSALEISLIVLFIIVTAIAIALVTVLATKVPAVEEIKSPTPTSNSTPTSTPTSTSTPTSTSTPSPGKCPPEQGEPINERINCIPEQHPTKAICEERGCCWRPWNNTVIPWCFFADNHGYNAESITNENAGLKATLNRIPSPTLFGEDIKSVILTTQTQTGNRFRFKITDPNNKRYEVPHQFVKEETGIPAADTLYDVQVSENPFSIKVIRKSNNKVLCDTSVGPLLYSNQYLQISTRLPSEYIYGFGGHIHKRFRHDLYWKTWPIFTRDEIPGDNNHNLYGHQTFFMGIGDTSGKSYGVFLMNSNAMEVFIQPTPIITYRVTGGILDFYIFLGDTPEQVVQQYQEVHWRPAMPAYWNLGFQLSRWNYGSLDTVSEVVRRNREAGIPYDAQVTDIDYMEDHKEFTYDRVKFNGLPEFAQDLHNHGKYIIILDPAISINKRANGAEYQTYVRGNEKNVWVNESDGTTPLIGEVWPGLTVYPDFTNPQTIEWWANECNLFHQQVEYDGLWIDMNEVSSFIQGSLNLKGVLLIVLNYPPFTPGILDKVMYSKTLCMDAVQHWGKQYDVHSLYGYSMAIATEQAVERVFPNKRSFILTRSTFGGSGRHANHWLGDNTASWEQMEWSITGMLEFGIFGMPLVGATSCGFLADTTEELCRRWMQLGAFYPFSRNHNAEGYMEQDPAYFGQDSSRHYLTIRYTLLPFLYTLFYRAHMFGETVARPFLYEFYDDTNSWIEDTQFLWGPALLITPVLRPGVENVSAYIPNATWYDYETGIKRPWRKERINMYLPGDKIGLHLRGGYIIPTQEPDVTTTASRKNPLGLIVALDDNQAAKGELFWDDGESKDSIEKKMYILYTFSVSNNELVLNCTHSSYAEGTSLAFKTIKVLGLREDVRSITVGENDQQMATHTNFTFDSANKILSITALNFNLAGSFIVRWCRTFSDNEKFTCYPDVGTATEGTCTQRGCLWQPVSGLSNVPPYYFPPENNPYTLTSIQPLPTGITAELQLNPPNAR
Chain of Sucrase-isomaltase, intestinal (P23739 1014-1841 limits assumed): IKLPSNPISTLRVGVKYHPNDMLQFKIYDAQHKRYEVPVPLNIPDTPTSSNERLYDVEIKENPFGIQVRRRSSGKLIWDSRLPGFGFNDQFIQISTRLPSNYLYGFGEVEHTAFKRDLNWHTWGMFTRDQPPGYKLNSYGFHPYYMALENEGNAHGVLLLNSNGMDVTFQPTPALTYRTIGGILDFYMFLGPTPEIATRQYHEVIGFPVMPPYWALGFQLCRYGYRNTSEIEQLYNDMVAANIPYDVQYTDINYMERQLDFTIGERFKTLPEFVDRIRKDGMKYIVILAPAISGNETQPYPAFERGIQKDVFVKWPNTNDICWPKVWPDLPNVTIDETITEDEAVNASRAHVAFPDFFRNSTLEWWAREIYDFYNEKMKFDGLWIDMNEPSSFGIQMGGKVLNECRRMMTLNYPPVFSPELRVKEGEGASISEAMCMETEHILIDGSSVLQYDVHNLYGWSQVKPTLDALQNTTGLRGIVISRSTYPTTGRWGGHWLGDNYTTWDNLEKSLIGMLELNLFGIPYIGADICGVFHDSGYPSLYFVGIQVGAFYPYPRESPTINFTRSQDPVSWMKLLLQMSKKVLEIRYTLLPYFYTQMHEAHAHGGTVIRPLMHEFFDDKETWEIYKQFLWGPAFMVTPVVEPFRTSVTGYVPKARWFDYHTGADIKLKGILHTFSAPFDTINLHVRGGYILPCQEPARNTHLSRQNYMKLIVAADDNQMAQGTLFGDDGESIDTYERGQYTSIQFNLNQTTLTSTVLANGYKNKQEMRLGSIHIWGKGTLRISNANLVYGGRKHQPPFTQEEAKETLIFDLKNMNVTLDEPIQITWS

`N[C@H]1C[C@@H](O)[C@H](O)[C@@H](O)[C@H]1O`: the figures for the IC50 in assay [1], in assay [2] and in assay [3] were 2890 µM, 7.3 µM and 5.8 µM, respectively.

Consider `N[C@@H]1C[C@@H](O)[C@H](O)[C@@H](O)[C@H]1O`, for which the 50% inhibitory concentration (IC50) in assay [1] turned out to be 12.5 µM; in assay [2], 6.8 µM; in assay [3] it was 4.4 µM. The corresponding values for `O[C@@H]1[C@@H](O)[C@H](O)C[C@H](N[C@H]2C[C@H](O)[C@@H](O)[C@H](O)[C@@H]2O)[C@@H]1O` are 40.1 µM, 4 µM and 3.6 µM. `O[C@H]1[C@H](O)[C@@H](N[C@H]2C=C[C@@H](O)[C@@H](O)[C@@H]2O)C=C[C@H]1O`: the half-inhibitory concentration (IC50) in assay [4] came out at 1400 µM. Same read-out and setting: under `CC(=O)N([C@H]1C=C[C@@H](O)[C@@H](O)[C@@H]1O)[C@H]1C=C[C@@H](O)[C@@H](O)[C@@H]1O` stands 1350 µM; under `CC(=O)N([C@H]1[C@H](O)[C@H](O)[C@@H](O)[C@@H](O)[C@@H]1O)[C@H]1[C@H](O)[C@H](O)[C@@H](O)[C@@H](O)[C@@H]1O`, 370 µM; under `O[C@@H]1[C@@H](O)[C@@H](O)[C@H](N[C@H]2[C@H](O)[C@H](O)[C@@H](O)[C@@H](O)[C@@H]2O)[C@@H](O)[C@@H]1O`, > 2000 µM. `N[C@H]1[C@H](O)[C@H](O)[C@@H](O)[C@@H](O)[C@@H]1N[C@H]1[C@H](O)[C@H](O)[C@@H](O)[C@@H](O)[C@@H]1O`: in assay [4], the half-inhibitory concentration (IC50) is > 2000 µM.

Regarding `OC1CC(N[C@H]2C[C@@H](O)[C@H](O)[C@@H](O)[C@H]2O)[C@@H](O)[C@@H](O)[C@@H]1O` (single isomer, unassigned), the IC50 was determined as 32.3 µM in assay [1], 3.7 µM in assay [2] and 3.1 µM in assay [3]. Turning to `C[C@H]1O[C@H](O[C@H]2[C@H](O)[C@@H](O)[C@@H](O[C@H]3[C@H](O)[C@@H](O)C(O)O[C@@H]3CO)O[C@@H]2CO)[C@H](O)[C@@H](O)[C@@H]1N[C@H]1C=C(CO)[C@@H](O)[C@H](O)[C@H]1O` (some centres undefined) [ACARBOSE], the IC50 in assay [1] is 404 µM; in assay [3], 1.5 µM.

The values are drawn from ChEMBL document CHEMBL3351659, “Amine-linked diquercitols as new α-glucosidase inhibitors” (Bioorg Med Chem Lett, 2014).
